Reference: US20230416248A1, “COMPOUNDS AND USES THEREOF” (Foghorn Therapeutics Inc., priority 2020, published 2023)
Like-named read-outs stand apart in the source and are kept apart here.

Key:
BRG-1 = molecular target: T1, BRG-1 (Homo sapiens, UniProt P51532); assay: ATPase catalytic activity of BRG-1, ADP-Glo in vitro biochemical assay; conditions: 30 nM BRG-1, 400 μM ATP, read-out: BRG1 IC50
T1 construct: made in house; host or cells: High Five insect cells
Outline: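 Once the ATPase reaction finished, leftover ATP was depleted over 40 minutes at room temperature. Generated ADP was next turned back into ATP during a 60-minute room-temperature step. Luciferase-derived light was then measured.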

BRM = molecular target: T2, BRM (Homo sapiens, UniProt P51531); assay: ATPase catalytic activity of BRM, ADP-Glo in vitro biochemical assay; conditions: for IC50: 30 nM BRM, 400 μM ATP; for Ratio* (BRG1 IC50 (μM) divided by BRM IC50 (μM)): selectivity ratio BRG1 IC50 / BRM IC50
T2 construct: made in house; host or cells: High Five insect cells
Outline: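 ADP-Glo luminescence, after depletion of leftover ATP and conversion of ADP, reported the activity. The 1 h room-temperature reaction held 400 μM ATP, 20 nM salmon sperm DNA and 30 nM BRM in 20 mM Tris pH 8, 20 mM MgCl2, 50 mM NaCl, 0.1% Tween-20, 1 mM DTT.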

[1] = ATPase catalytic activity, ADP-Glo

T2 sequence (P51531 whole entry): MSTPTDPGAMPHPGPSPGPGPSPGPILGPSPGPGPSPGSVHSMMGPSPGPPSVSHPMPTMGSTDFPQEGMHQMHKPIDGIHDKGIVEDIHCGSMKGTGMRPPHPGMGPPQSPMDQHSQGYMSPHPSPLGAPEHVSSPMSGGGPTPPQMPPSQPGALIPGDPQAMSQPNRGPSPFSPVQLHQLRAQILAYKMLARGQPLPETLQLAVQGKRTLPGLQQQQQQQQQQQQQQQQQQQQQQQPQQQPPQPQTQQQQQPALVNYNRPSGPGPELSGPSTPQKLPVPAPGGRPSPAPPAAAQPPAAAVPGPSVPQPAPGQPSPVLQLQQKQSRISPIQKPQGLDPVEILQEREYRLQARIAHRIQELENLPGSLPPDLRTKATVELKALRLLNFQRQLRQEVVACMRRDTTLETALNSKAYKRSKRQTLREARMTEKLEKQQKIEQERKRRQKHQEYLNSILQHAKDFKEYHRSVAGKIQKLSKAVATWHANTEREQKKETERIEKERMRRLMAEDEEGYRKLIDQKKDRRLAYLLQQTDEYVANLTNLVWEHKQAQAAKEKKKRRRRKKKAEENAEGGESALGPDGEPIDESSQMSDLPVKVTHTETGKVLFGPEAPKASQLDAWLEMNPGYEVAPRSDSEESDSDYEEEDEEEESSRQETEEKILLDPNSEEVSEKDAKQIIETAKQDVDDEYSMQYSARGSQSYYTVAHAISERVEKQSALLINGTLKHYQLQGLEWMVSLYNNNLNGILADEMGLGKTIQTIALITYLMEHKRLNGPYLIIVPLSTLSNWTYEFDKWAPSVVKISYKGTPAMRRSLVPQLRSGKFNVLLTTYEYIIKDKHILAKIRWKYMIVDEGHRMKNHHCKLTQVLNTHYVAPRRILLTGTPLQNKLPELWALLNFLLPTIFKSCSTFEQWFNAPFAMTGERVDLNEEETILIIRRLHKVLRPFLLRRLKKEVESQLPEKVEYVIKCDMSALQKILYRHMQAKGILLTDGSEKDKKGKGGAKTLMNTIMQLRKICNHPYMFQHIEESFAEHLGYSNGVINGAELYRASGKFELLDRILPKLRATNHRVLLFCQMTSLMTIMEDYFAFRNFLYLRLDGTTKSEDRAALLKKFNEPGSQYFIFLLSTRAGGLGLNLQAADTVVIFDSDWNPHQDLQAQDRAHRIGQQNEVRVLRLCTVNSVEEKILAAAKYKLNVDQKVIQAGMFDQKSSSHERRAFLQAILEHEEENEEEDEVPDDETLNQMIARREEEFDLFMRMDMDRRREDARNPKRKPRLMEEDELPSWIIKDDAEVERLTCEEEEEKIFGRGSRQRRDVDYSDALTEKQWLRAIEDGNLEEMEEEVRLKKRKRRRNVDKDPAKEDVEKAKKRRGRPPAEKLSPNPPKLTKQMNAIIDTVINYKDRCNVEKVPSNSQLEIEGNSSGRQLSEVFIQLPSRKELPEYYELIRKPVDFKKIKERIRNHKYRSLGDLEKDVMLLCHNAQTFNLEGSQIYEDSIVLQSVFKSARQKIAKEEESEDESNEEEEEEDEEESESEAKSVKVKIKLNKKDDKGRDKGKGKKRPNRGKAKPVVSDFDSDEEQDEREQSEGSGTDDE
T1 sequence (P51532 whole entry): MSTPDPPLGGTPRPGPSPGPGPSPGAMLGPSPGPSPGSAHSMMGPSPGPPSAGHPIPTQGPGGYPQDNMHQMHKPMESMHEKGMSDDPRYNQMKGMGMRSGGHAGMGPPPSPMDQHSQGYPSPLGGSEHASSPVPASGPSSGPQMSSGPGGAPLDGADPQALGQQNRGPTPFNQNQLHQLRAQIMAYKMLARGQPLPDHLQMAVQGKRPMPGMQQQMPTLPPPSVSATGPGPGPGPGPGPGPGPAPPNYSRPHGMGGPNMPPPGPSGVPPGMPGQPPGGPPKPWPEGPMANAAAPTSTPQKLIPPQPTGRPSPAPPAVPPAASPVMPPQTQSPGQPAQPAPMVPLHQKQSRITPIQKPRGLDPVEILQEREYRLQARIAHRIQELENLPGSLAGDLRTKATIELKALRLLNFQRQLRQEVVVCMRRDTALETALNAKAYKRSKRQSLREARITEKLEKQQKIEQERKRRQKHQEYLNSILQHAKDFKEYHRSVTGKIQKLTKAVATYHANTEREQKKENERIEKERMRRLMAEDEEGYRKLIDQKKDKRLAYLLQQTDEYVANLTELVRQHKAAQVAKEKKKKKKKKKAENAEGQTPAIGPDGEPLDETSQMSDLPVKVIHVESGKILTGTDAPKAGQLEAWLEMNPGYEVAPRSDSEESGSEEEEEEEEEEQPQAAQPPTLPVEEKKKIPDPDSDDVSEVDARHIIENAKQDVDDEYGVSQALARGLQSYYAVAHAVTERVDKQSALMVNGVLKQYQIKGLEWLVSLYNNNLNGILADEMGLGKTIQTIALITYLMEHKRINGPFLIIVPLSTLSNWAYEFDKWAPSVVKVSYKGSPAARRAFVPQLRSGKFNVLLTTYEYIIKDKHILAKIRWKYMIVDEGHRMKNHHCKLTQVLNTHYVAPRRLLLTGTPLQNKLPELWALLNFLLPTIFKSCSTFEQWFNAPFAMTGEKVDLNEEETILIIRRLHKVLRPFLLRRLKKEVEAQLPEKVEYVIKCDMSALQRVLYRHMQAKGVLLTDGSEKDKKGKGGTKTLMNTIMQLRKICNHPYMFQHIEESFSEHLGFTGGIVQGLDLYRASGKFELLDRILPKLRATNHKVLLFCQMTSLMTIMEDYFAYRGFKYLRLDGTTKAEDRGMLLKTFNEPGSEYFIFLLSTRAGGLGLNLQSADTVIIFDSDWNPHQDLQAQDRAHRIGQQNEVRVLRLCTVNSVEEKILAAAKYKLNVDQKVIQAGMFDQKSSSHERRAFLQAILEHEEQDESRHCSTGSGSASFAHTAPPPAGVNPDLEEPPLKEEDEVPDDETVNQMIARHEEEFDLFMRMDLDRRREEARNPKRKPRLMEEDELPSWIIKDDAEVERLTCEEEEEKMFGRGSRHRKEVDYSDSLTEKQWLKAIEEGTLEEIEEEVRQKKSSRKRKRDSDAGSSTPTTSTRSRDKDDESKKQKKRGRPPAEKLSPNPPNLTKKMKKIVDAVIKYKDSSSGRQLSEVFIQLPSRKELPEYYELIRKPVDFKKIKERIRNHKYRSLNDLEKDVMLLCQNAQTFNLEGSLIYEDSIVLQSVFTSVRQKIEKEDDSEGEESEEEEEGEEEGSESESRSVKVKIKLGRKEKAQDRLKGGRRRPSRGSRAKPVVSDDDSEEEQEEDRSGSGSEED

IC50 (BRG-1; [1]) [nM]	IC50 (BRM; [1]) [nM]	Ratio* (BRM; ratio of BRG1 IC50 to BRM IC50)	IC50 (BRG-1; ADP-Glo ATPase assay) [nM]	IC50 (BRM; ADP-Glo ATPase assay) [nM]	Ratio* (BRG1 IC50 (μM) divided by BRM IC50 (μM)) (BRM)	Ratio* (BRM; ratio BRG1 IC50 / BRM IC50)	Structure (SMILES)
702	44.6	15.74	–	–	–	–	CO[C@@H](C)c1cnc2c(c1)CCCN2c1ccc2cnc(CNC(=O)c3ccc4c(c3)S(=O)(=O)CCOC4)cc2n1 [Compound 607]
181	15.9	11.37	–	–	–	–	CCOc1nc(-c2ccc3cnc(CNC(=O)c4ccc5c(c4)S(=O)(=O)CCOC5)cc3n2)ccc1C(F)F [Compound 489]
–	–	–	21.3	7	3.05	–	C[C@@H]1CN(c2cncc(-c3ccc4cnc(CNC(=O)c5ccc6c(c5)S(=O)(=O)CCOC6)cc4c3)n2)C[C@H](C)O1 [Compound 211]
360	19.7	18.34	–	–	–	–	C[C@@H]1CN(c2cccc(-c3ccc4cnc(CNC(=O)c5ccc6c(c5)S(=O)(=O)[C@@H](C)CO6)cc4n3)n2)C[C@H](C)O1 [Compound 687]
131	7.3	17.80	–	–	–	–	Cc1cnc2c(c1)OCCN2c1ccc2cnc(CNC(=O)c3cc(C)c4c(c3)S(=O)(=O)CCOC4)cc2n1 [Compound 549]
226	15	15.10	–	–	–	–	COC[C@H]1C[C@@H](N(C)c2cccc(-c3ccc4cnc(CNC(=O)c5ccc6c(c5)S(=O)(=O)CCOC6)cc4n3)n2)C1 [Compound 436]
1780	274	6.49	–	–	–	–	O=C(NCc1cc2nc(-n3cc(F)c(N4CCOCC4)n3)ccc2cn1)c1ccc2c(c1)S(=O)(=O)CCOC2 [Compound 574]
921	179	5.15	–	–	–	–	CCOc1nc(-c2ccc3cnc(CNC(=O)c4ccc5c(c4)S(=O)(=O)CCOC5)cc3n2)ccc1Cl [Compound 493]
–	–	–	1060	112	9.48	–	COCCOc1cccc(-c2ccc3cnc(CNC(=O)c4ccc5c(c4)S(=O)(=O)CCOC5)cc3n2)c1 [Compound 135]
–	–	–	394	15.6	25.22	–	C[C@@H]1CN(c2cccc(-c3ccc4cnc(CNC(=O)c5cc(F)c(C(F)F)c(S(C)(=O)=O)c5)cc4n3)n2)C[C@H](C)O1 [Compound 147]
–	–	–	264	20.8	12.71	–	C[C@@H]1CN(c2cncc(-c3ccc4cnc(CNC(=O)c5ccc(C(F)F)c(S(C)(=O)=O)c5)cc4n3)n2)C[C@H](C)O1 [Compound 163]
–	–	–	143	12.4	–	11.55	CN(c1cnc2c(c1)OCCN2c1ccc2cnc(CNC(=O)c3ccc4c(c3)S(=O)(=O)CCOC4)cc2n1)C1CC(F)(F)C1 [Compound 817]
–	–	–	987	45.9	–	21.51	CC1(c2ccc3c(n2)N(c2ccc4cnc(CNC(=O)c5ccc6c(c5)S(=O)(=O)CCOC6)cc4n2)CCO3)CC1 [Compound 713]
981	63.1	15.54	–	–	–	–	C[C@@H]1CN(c2cccc(-c3ccc4cnc(CNC(=O)c5cc(F)c6c(c5)S(=O)(=O)CC[C@H](C)O6)cc4n3)n2)C[C@H](C)O1 [Compound 495]
479	41.3	11.61	–	–	–	–	CC1CN(c2cccc(-c3ccc4cnc(CNC(=O)c5cnc6c(c5)S(=O)(=O)C(C)CC6)cc4n3)n2)CC(C)O1 (stereo not drawn) [Compound 597]
–	–	–	269	6.9	–	39.28	C[C@@H]1C[C@H]1c1ccc2c(n1)N(c1ccc3cnc(CNC(=O)c4ccc5c(c4)S(=O)(=O)CCOC5)cc3n1)CCO2 [Compound 809]
115	12.7	9.04	–	–	–	–	C[C@H]1COCc2ccc(C(=O)NCc3cc4nc(N5CCCc6cc(N(C)C)cnc65)ccc4cn3)cc2S1(=O)=O [Compound 650]

IC50 (BRG-1; [1]) [nM]	IC50 (BRM; [1]) [nM]	Ratio* (BRM; ratio of BRG1 IC50 to BRM IC50)	IC50 (BRG-1; ADP-Glo ATPase assay) [nM]	IC50 (BRM; ADP-Glo ATPase assay) [nM]	Ratio* (BRG1 IC50 (μM) divided by BRM IC50 (μM)) (BRM)	Ratio* (BRM; ratio BRG1 IC50 / BRM IC50)	Structure (SMILES)
87.9	5.8	15.21	–	–	–	–	O=C(NCc1cc2nc(N3CCCc4cc(C5CC5)cnc43)ccc2cn1)c1ccc2c(c1)S(=O)(=O)CCOC2 [Compound 394]
4990	568	8.79	–	–	–	–	COCCn1cc2c(-c3ccc4cnc(CNC(=O)c5ccc6c(c5)S(=O)(=O)CCOC6)cc4n3)cccc2n1 [Compound 673]
188	10.9	17.27	–	–	–	–	COc1nc(C(F)F)ccc1-c1ccc2cnc(CNC(=O)c3ccc4c(c3)S(=O)(=O)[C@@H](C)COC4)cc2n1 [Compound 405]
1890	109	17.41	–	–	–	–	O=C(NCc1cc2nc(N3CCOc4ccc(C(F)(F)F)nc43)ccc2cn1)c1ccc2c(c1)S(=O)(=O)CCOC2 [Compound 583]
–	–	–	348	23.3	14.94	–	O=C(NCc1cc2cc(-c3cncc(C4CC4)n3)ccc2cn1)c1ccc2c(c1)S(=O)(=O)CCOC2 [Compound 263]
181	11.6	15.53	–	–	–	–	CC1COCc2ccc(C(=O)NCc3cc4nc(N5CCOc6cccnc65)ccc4cn3)cc2S1(=O)=O (stereo not drawn) [Compound 523]
–	–	–	633	21.4	29.53	–	O=C(NCc1cc2nc(-c3cccc(C4CC4)n3)ccc2cn1)c1cc(F)c2c(c1)S(=O)(=O)CCOC2 [Compound 63]
–	–	–	200	34.9	5.74	–	C[C@@H]1CN(c2cccc(-c3ccc4cnc(CNC(=O)c5ccc6c(c5)S(=O)(=O)CCN(C)C6)cc4n3)n2)C[C@H](C)O1 [Compound 51]
–	–	–	564	38.4	14.67	–	C[C@H]1CN(c2cccc(-c3ccc4cnc(CNC(=O)c5ccc(C(F)F)c(S(C)(=O)=O)c5)cc4n3)n2)C[C@H](C)O1 [Compound 162]
–	–	–	1520	188	8.09	–	Cn1cnc2c(-c3ccc4cnc(CNC(=O)c5ccc6c(c5)S(=O)(=O)CCOC6)cc4n3)cccc21 [Compound 234]
–	–	–	190	18.8	–	10.11	O=C(NCc1cc2nc(-c3cccc(N4CC(C5(F)COC5)C4)n3)ccc2cn1)c1ccc2c(c1)S(=O)(=O)CCOC2 [Compound 797]
–	–	–	3170	286	11.06	–	O=C(NCc1cc2nc(-c3cccc(OC4COC4)c3)ccc2cn1)c1ccc2c(c1)S(=O)(=O)CCOC2 [Compound 242]
–	–	–	28.7	4.6	6.29	–	C[C@@H]1CN(c2cccc(-c3ccc4cnc(CNC(=O)c5ccc6c(c5)S(=O)(=O)CCOC6)cc4n3)n2)CCO1 [Compound 225]
34.8	6.3	5.55	–	–	–	–	C[C@]1(F)CCCN(c2cccc(-c3ccc4cnc(CNC(=O)c5ccc6c(c5)S(=O)(=O)CCOC6)cc4n3)n2)C1 [Compound 317]
275	14.6	18.90	–	–	–	–	COc1nc(C)ccc1-c1ccc2cnc(CNC(=O)c3ccc4c(c3)S(=O)(=O)[C@@H](C)COC4)cc2n1 [Compound 411]
–	–	–	136	12.9	10.58	–	O=C(NCc1cc2nc(-c3cccc(N4CC[C@@H](F)C4)n3)ccc2cn1)c1ccc2c(c1)S(=O)(=O)CCOC2 [Compound 222]
